We go through five compounds from the supplement of paper PMC10307832.

For one assay, the system named is NCI-H1993. The assay is described as follows: relative viability (nuclei count vs DMSO), 5 days (fraction); higher = more cells survive. The settings on record: first compound 8 µM. A digest of the protocol:
(§1)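 Lung cancer cell lines in 1536-well plates got either a single drug or a fixed anchor-drug dose together with five library-drug doses (not always all listed) in √10 steps, by pin tool, on the day after seeding. Nuclei were counted after 5 days, and relative viability is the treated-to-vehicle ratio of nuclei counts. Values are medians of duplicate plates.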
`CCCCCCCCCCCC1=C(O)C(=O)C=C(O)C1=O` [Embelin] + Nc1nc2[nH]cc(CCc3ccc(C(=O)N[C@@H](CCC(=O)O)C(=O)O)cc3)c2c(=O)[nH]1 [Pemetrexed] (partner 0.2 µM) registered a relative viability of 0.554.

Another assay has as its system NCI-H2009. The description is as above. The conditions noted are these: first compound 0.08 µM. Put shortly: as §1
Take `CCCCCCCCCCCC1=C(O)C(=O)C=C(O)C1=O` [Embelin] + N=C(N)NC(=N)NCCc1ccccc1 [Phenformin] (partner 250 µM): the relative viability is 0.495.

The compound `CCCCCCCCCCCC1=C(O)C(=O)C=C(O)C1=O` [Embelin] + CCNC(=O)c1noc(-c2cc(C(C)C)c(O)cc2O)c1-c1ccc(CN2CCOCC2)cc1 [Luminespib] (partner 0.01 µM) gave a relative viability of 1.05.

The compound `CCCCCCCCCCCC1=C(O)C(=O)C=C(O)C1=O` [Embelin] + Cc1nc(Nc2ncc(C(=O)Nc3c(C)cccc3Cl)s2)cc(N2CCN(CCO)CC2)n1 [Dasatinib] (partner 0.075 µM) displayed a relative viability of 0.342.

For the compound `CCCCCCCCCCCC1=C(O)C(=O)C=C(O)C1=O` [Embelin] + COc1cccc2cc(-c3nc([C@H]4CC[C@H](C(=O)O)CC4)n4ncnc(N)c34)[nH]c12 [OSI-027] (partner 0.5 µM), the relative viability amounted to 0.728.

`CCCCCCCCCCCC1=C(O)C(=O)C=C(O)C1=O` [Embelin] + Nc1nc2[nH]cc(CCc3ccc(C(=O)N[C@@H](CCC(=O)O)C(=O)O)cc3)c2c(=O)[nH]1 [Pemetrexed] (partner 0.2 µM) returned a relative viability of 1.08.

Staying with this assay, now noted: first compound 0.8 µM.
The compound `CCCCCCCCCCCC1=C(O)C(=O)C=C(O)C1=O` [Embelin] + N=C(N)NC(=N)NCCc1ccccc1 [Phenformin] (partner 250 µM) showed a relative viability of 0.598.

Consider `CCCCCCCCCCCC1=C(O)C(=O)C=C(O)C1=O` [Embelin] + CCNC(=O)c1noc(-c2cc(C(C)C)c(O)cc2O)c1-c1ccc(CN2CCOCC2)cc1 [Luminespib] (partner 0.01 µM), for which the relative viability came out at 1.07.

The compound `CCCCCCCCCCCC1=C(O)C(=O)C=C(O)C1=O` [Embelin] + Cc1nc(Nc2ncc(C(=O)Nc3c(C)cccc3Cl)s2)cc(N2CCN(CCO)CC2)n1 [Dasatinib] (partner 0.075 µM) gave a relative viability of 0.487.

For the compound `CCCCCCCCCCCC1=C(O)C(=O)C=C(O)C1=O` [Embelin] + COc1cccc2cc(-c3nc([C@H]4CC[C@H](C(=O)O)CC4)n4ncnc(N)c34)[nH]c12 [OSI-027] (partner 0.5 µM), the relative viability was 0.736.

Take `CCCCCCCCCCCC1=C(O)C(=O)C=C(O)C1=O` [Embelin] + Nc1nc2[nH]cc(CCc3ccc(C(=O)N[C@@H](CCC(=O)O)C(=O)O)cc3)c2c(=O)[nH]1 [Pemetrexed] (partner 0.2 µM): the relative viability is 1.09.

The same assay, now with this note: first compound 2.53 µM.
In turn, `CCCCCCCCCCCC1=C(O)C(=O)C=C(O)C1=O` [Embelin] + N=C(N)NC(=N)NCCc1ccccc1 [Phenformin] (partner 250 µM) registered a relative viability of 0.44.

As for `CCCCCCCCCCCC1=C(O)C(=O)C=C(O)C1=O` [Embelin] + CCNC(=O)c1noc(-c2cc(C(C)C)c(O)cc2O)c1-c1ccc(CN2CCOCC2)cc1 [Luminespib] (partner 0.01 µM), the relative viability turned out to be 1.08.

Turning to `CCCCCCCCCCCC1=C(O)C(=O)C=C(O)C1=O` [Embelin] + Cc1nc(Nc2ncc(C(=O)Nc3c(C)cccc3Cl)s2)cc(N2CCN(CCO)CC2)n1 [Dasatinib] (partner 0.075 µM), the relative viability came out at 0.243.

With `CCCCCCCCCCCC1=C(O)C(=O)C=C(O)C1=O` [Embelin] + COc1cccc2cc(-c3nc([C@H]4CC[C@H](C(=O)O)CC4)n4ncnc(N)c34)[nH]c12 [OSI-027] (partner 0.5 µM), the relative viability worked out at 0.492.

As to `CCCCCCCCCCCC1=C(O)C(=O)C=C(O)C1=O` [Embelin] + Nc1nc2[nH]cc(CCc3ccc(C(=O)N[C@@H](CCC(=O)O)C(=O)O)cc3)c2c(=O)[nH]1 [Pemetrexed] (partner 0.2 µM), the relative viability amounted to 1.06.

The assay is the same for the next values; noted with them: first compound 8 µM.
On to `CCCCCCCCCCCC1=C(O)C(=O)C=C(O)C1=O` [Embelin] + N=C(N)NC(=N)NCCc1ccccc1 [Phenformin] (partner 250 µM), for which the relative viability was 0.295.

With `CCCCCCCCCCCC1=C(O)C(=O)C=C(O)C1=O` [Embelin] + CCNC(=O)c1noc(-c2cc(C(C)C)c(O)cc2O)c1-c1ccc(CN2CCOCC2)cc1 [Luminespib] (partner 0.01 µM), the relative viability was 1.01.

With `CCCCCCCCCCCC1=C(O)C(=O)C=C(O)C1=O` [Embelin] + Cc1nc(Nc2ncc(C(=O)Nc3c(C)cccc3Cl)s2)cc(N2CCN(CCO)CC2)n1 [Dasatinib] (partner 0.075 µM), the relative viability was determined as 0.251.

`CCCCCCCCCCCC1=C(O)C(=O)C=C(O)C1=O` [Embelin] + COc1cccc2cc(-c3nc([C@H]4CC[C@H](C(=O)O)CC4)n4ncnc(N)c34)[nH]c12 [OSI-027] (partner 0.5 µM) returned a relative viability of 0.594.

For `CCCCCCCCCCCC1=C(O)C(=O)C=C(O)C1=O` [Embelin] + Nc1nc2[nH]cc(CCc3ccc(C(=O)N[C@@H](CCC(=O)O)C(=O)O)cc3)c2c(=O)[nH]1 [Pemetrexed] (partner 0.2 µM), the relative viability stood at 1.01.

A further assay deals with NCI-H2126. The description is as above. The conditions noted are these: first compound 0.08 µM. Put shortly:
as §1
As to `CCCCCCCCCCCC1=C(O)C(=O)C=C(O)C1=O` [Embelin] + N=C(N)NC(=N)NCCc1ccccc1 [Phenformin] (partner 250 µM), the relative viability was 0.556.

In the case of `CCCCCCCCCCCC1=C(O)C(=O)C=C(O)C1=O` [Embelin] + CCNC(=O)c1noc(-c2cc(C(C)C)c(O)cc2O)c1-c1ccc(CN2CCOCC2)cc1 [Luminespib] (partner 0.01 µM), the relative viability was 0.838.

As for `CCCCCCCCCCCC1=C(O)C(=O)C=C(O)C1=O` [Embelin] + Cc1nc(Nc2ncc(C(=O)Nc3c(C)cccc3Cl)s2)cc(N2CCN(CCO)CC2)n1 [Dasatinib] (partner 0.075 µM), the relative viability was determined as 0.615.

The compound `CCCCCCCCCCCC1=C(O)C(=O)C=C(O)C1=O` [Embelin] + COc1cccc2cc(-c3nc([C@H]4CC[C@H](C(=O)O)CC4)n4ncnc(N)c34)[nH]c12 [OSI-027] (partner 0.5 µM) yielded a relative viability of 0.666.

Turning to `CCCCCCCCCCCC1=C(O)C(=O)C=C(O)C1=O` [Embelin] + Nc1nc2[nH]cc(CCc3ccc(C(=O)N[C@@H](CCC(=O)O)C(=O)O)cc3)c2c(=O)[nH]1 [Pemetrexed] (partner 0.2 µM), the relative viability was found to be 0.735.

Staying with this assay, now noted: first compound 0.8 µM.
In turn, `CCCCCCCCCCCC1=C(O)C(=O)C=C(O)C1=O` [Embelin] + N=C(N)NC(=N)NCCc1ccccc1 [Phenformin] (partner 250 µM) had a relative viability of 0.609.

The compound `CCCCCCCCCCCC1=C(O)C(=O)C=C(O)C1=O` [Embelin] + CCNC(=O)c1noc(-c2cc(C(C)C)c(O)cc2O)c1-c1ccc(CN2CCOCC2)cc1 [Luminespib] (partner 0.01 µM) registered a relative viability of 1.01.

In turn, `CCCCCCCCCCCC1=C(O)C(=O)C=C(O)C1=O` [Embelin] + Cc1nc(Nc2ncc(C(=O)Nc3c(C)cccc3Cl)s2)cc(N2CCN(CCO)CC2)n1 [Dasatinib] (partner 0.075 µM) returned a relative viability of 0.684.

In turn, `CCCCCCCCCCCC1=C(O)C(=O)C=C(O)C1=O` [Embelin] + COc1cccc2cc(-c3nc([C@H]4CC[C@H](C(=O)O)CC4)n4ncnc(N)c34)[nH]c12 [OSI-027] (partner 0.5 µM) yielded a relative viability of 0.746.

For the compound `CCCCCCCCCCCC1=C(O)C(=O)C=C(O)C1=O` [Embelin] + Nc1nc2[nH]cc(CCc3ccc(C(=O)N[C@@H](CCC(=O)O)C(=O)O)cc3)c2c(=O)[nH]1 [Pemetrexed] (partner 0.2 µM), the relative viability came out at 0.636.
